The source of these data is article PMC11850127 (The Journal of Biological Chemistry, 2025).

In one assay the test system is homomeric α7 nAChRs. The conditions noted are these: cited from earlier work.
Another assay relates to homomeric α10 nAChRs. The conditions noted are these: cited from earlier work.
The next assay relates to α9 homomers. The settings on record: cited from earlier work.
Assay [1] has as its target T1, [V13′T]α10 nAChRs (Homo sapiens, UniProt Q9GZZ6, V280T). The class given is cell-based, human (expressed in Xenopus laevis oocytes).
In a further assay the test system is human α10 nAChRs. The class given is cell-based, human (expressed in Xenopus laevis oocytes).
In another assay the test system is α9α10 nAChRs. The conditions noted are these: cited from earlier work.
The next assay concerns muscle type nAChRs. The conditions noted are these: cited from earlier work.
The target of assay [2] is T1, [V13′T]α10 nAChRs. Nature of the assay: cell-based. The class given is cell-based, human (expressed in Xenopus laevis oocytes).
Assay [3] relates to uninjected oocytes and oocytes injected with RIC-3 alone. The class given is cell-based, Xenopus laevis.
For assay [4], the system named is homomeric α9 nAChRs. The conditions noted are these: cited from earlier work.
Another assay deals with (α4)3(β2)2. The conditions noted are these: cited from earlier work.
Assay [5] concerns homomeric α9 nAChRs. The settings on record: cited from earlier work. The source holds these as a separate data set.
The next assay deals with [V13′T]α10 nAChR. The class given is cell-based, human (expressed in Xenopus laevis oocytes).
Another assay deals with human α10 nAChR. The class given is cell-based, human (expressed in Xenopus laevis oocytes).
A further assay relates to (α4)2(β2)3. The settings on record: cited from earlier work.

“Also recorded” adds a separate entry of the source. Read-outs that look alike come from different tables or passages of the source.

T1 sequence (Q9GZZ6 25-450 V280T limits assumed): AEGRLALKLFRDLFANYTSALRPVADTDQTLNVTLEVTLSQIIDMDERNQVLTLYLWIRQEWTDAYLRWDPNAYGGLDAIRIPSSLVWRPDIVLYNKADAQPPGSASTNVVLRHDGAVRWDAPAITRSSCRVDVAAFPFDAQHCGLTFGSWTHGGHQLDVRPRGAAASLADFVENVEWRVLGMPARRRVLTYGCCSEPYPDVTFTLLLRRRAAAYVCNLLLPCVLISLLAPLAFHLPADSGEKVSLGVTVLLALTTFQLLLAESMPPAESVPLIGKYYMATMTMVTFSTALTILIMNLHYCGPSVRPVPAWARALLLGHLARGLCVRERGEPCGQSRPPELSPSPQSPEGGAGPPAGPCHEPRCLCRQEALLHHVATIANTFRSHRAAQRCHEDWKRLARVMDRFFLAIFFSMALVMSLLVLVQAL

Turning to `O=C1C[C@@H]2OCC=C3CN4CC[C@]56c7ccccc7N1[C@H]5[C@H]2[C@H]3C[C@H]46` [strychnine], in the assay with homomeric α7 nAChRs, the “block of homomeric α7 nAChRs by strychnine” value was “blocks”. Moreover, the “enabling of function/expression of homomeric α10 nAChRs” value in the assay on homomeric α10 nAChRs was “enable the expression of human α10 nAChRs; also recorded: enable functional expression of wild-type α10 homomers in oocytes; also recorded: can enable the function of homomeric α10 mammalian nAChRs”. In addition, the “block of homomeric α9 nAChRs by strychnine” value in the assay on α9 homomers is “blocks”. For the same molecule, in [V13′T]α10 nAChRs [1], the “ACh-evoked response, percent of baseline” value was 572 ± 131%; the “effect of strychnine at low concentrations” value was “enhanced [V13′T]α10 responses to ACh”; the “effect of strychnine at the highest concentration” value is listed as “inhibitory effect; also recorded: almost entirely inhibited”; the “effect of strychnine on [V13′T]α10 + RIC-3 responses” value was “further enhanced”. Moreover, in [V13′T]α10 nAChRs [1], the “enhancement of ACh-evoked response” value came out at 572 ± 131%; the “maximum enhancement of ACh responses” value was “greater than 5 fold”; the “potentiation of ACh-evoked currents (in words)” value was “rapid, significant potentiation”; the “strychnine concentration of maximum potentiation” value was found to be 1 µM. For the same molecule, in the assay with human α10 nAChRs, the “effect of strychnine on α10 nAChR function, higher concentrations” value is given as “block α10 nAChR function” and the “effect of strychnine on α10 plus RIC-3 oocytes, lower concentrations” value was “further substantial increase in expression”. Further, the “block of α9α10 nAChRs by strychnine” value in the assay on α9α10 nAChRs is “blocks”.
Turning to α-bungarotoxin, in the assay with homomeric α7 nAChRs, the “block of α7 homomers by α-bungarotoxin” value was “blocks”. Also, the “sensitivity of α9 to α-bungarotoxin” value in the assay on α9 homomers is reported as “sensitive”. Further, in assay [V13′T]α10 nAChRs [1], the Hill slope (as a rule, a measure of the steepness of the concentration-response curve) is on record as −1.17 and the IC50 (commonly the concentration that inhibits the measured activity by half) is 0.331 µM. Also, in the assay with human α10 nAChRs, the “antagonist sensitivity of α10 homomers” value is recorded as “blocked; also recorded: sensitive” and the “block of ACh-evoked current” value is recorded as “completely blocked; also recorded: sensitive; also recorded: inhibited”. The “block of muscle type nAChRs by α-bungarotoxin” value in the assay on muscle type nAChRs was “blocks”. Besides, the “block of α9α10 nAChRs by α-bungarotoxin” value with α9α10 nAChRs is “sensitive; also recorded: blocks”.
Turning to `CCN1C[C@]2(COC(=O)c3ccccc3N3C(=O)C[C@H](C)C3=O)CC[C@H](OC)[C@@]34[C@@H]5C[C@H]6[C@H](OC)[C@@H]5[C@](O)(C[C@@H]6OC)[C@@](O)([C@@H](OC)[C@H]23)[C@@H]14` [methyllycaconitine], the “enabling of function/expression of homomeric α10 nAChRs” value in the assay with homomeric α10 nAChRs is given as “can enable the function of homomeric α10 mammalian nAChRs”.
`COc1cc2c(cc1OC)[C@@]13CCN4CC5=CCO[C@H]6CC(=O)N2[C@H]1[C@H]6[C@H]5C[C@H]43` [brucine]: in the assay on homomeric α10 nAChRs, the “enabling of function/expression of homomeric α10 nAChRs” value is given as “can enable the function of homomeric α10 mammalian nAChRs”.
dihydro-β-erythroidine: in [V13′T]α10 nAChRs [1] (3 μM, 10 min, n = 5), the “effect on ACh-evoked response” value was “no significant activity; also recorded: not significantly altered”.
Consider `CC(=O)OCC[N+](C)(C)C` [ACh, Acetylcholine], for which, in assay [V13′T]α10 nAChRs [2], the “ACh-induced currents versus those induced by choline or nicotine” value was “significantly larger” and the Hill slope was 0.82 (0.67–1.01). Besides, in [3] (n = 10), the “ACh-induced current in uninjected oocytes” value was “did not produce currents; also recorded: No ACh-induced currents were observed”. For the same molecule, the “ACh-induced current in oocytes injected with RIC-3 alone” value in assay [3] (n = 20) is on record as “did not produce currents; also recorded: No ACh-induced currents were observed”. The ACh-induced currents result in the assay with homomeric α9 nAChRs [4] is given as “small currents”. Moreover, the affinity for acetylcholine result in the assay with (α4)3(β2)2 is “low”. In addition, in the assay on homomeric α9 nAChRs [5], the ACh-induced currents result is on record as “small currents”. For the same molecule, in assay [V13′T]α10 nAChR, the “effect of absence of Ca^2+ on ACh-evoked currents” value is listed as “did not substantially reduce ACh-evoked currents” and the “mean ACh-induced response without actinomycin D” value is −208 ± 227 nA. Further, in [V13′T]α10 nAChR (n = 12), the “range of ACh-induced response” value was −117 to −1120 nA. Besides, in the assay on human α10 nAChR, the “ACh-induced current, average amplitude” value came out at 17 nA; the “mean ACh-induced response” value is −7 ± 6 nA; the “response to ACh, α10 + RIC-3 versus α10 only” value was “significantly greater than those observed in α10-only injected oocytes; also recorded: significantly larger responses”. Further, the “range of ACh-induced response” value in the assay on human α10 nAChR (n = 12) was −2 to −24 nA. For the same molecule, in the assay on (α4)2(β2)3, the affinity for acetylcholine entry was “high”.
In the case of `CN1[C@@H]2CC[C@H]1C[C@@H](OC(=O)C(CO)c1ccccc1)C2` (stereo partly drawn) [atropine], in [V13′T]α10 nAChRs [1], the “ACh-evoked response, percent of baseline” value is recorded as 230 ± 44%; the “enhancement of ACh-evoked response” value stood at 230 ± 44%; the “onset and reversal of potentiation” value was “rapid onset and reversal”; the “potentiation of ACh-evoked currents (in words)” value is recorded as “rapid, significant potentiation”.
With `C[N+](C)(C)CCO` [choline], in assay [V13′T]α10 nAChRs [2], the EC50 (as a rule, the concentration needed to bring the measured effect to its halfway point) came out at 200 µM; the Hill slope is on record as 0.49 (0.41–0.60); the agonist class entry was “partial agonists”; the “efficacy of choline relative to nicotine” value was “more efficacious than nicotine”. In addition, the “efficacy relative to ACh” value in assay [V13′T]α10 nAChRs [2] is recorded as “lower efficacy than ACh”.
For `CN1CCC[C@H]1c1cccnc1` [nicotine], in assay [V13′T]α10 nAChRs [2], the EC50 was determined as 350 µM, the Hill slope is given as 0.59 (0.49–0.69), the agonist class result is on record as “partial agonist” and the “efficacy relative to ACh” value is listed as “lower efficacy than ACh”. Also, the “action of nicotine on wild-type α9α10 nAChRs” value with α9α10 nAChRs is on record as “antagonist”.
